Earlier results on one compound are cited in patent US7084135B1, “Prenyl transferase inhibitors” (Societe de Conseils de Recherches et d'Applications …, priority 1998, dated 2006).

In one data set the test system is DU145 adenocarcinoma. The settings on record: Prostate: DU145 adenocarcinoma, with WT ras.
For the next data set, the system named is HT29, adenocarcinoma. As to conditions: Colon: HT29, adenocarcinoma with Wild Type ras (WT).

Regarding `CC[C@H](C)[C@@H](COC(Cc1ccccc1)C(=O)N[C@@H](CCS(C)(=O)=O)C(=O)OC(C)C)NC[C@@H](N)CS` (some centres unmarked) [Compound L744-832], the “sensitivity of cell line to L744-832” value in the data set with DU145 adenocarcinoma was “resistant”; in the data set with HT29, adenocarcinoma, “sensitive”.
